This note sets out measurements from US20190275012A9, “SUBSTITUTED THIAZOLO-PYRIDINE COMPOUNDS AS MALT1 INHIBITORS” (Lupin Limited, priority 2016, published 2019).

For one test, the target named is T1, full length MALT1 enzyme (Homo sapiens, UniProt Q9UDY8).
T1 construct: a fluorescence based assay with full length MALT1 enzyme
T1 sequence (Q9UDY8 1-824): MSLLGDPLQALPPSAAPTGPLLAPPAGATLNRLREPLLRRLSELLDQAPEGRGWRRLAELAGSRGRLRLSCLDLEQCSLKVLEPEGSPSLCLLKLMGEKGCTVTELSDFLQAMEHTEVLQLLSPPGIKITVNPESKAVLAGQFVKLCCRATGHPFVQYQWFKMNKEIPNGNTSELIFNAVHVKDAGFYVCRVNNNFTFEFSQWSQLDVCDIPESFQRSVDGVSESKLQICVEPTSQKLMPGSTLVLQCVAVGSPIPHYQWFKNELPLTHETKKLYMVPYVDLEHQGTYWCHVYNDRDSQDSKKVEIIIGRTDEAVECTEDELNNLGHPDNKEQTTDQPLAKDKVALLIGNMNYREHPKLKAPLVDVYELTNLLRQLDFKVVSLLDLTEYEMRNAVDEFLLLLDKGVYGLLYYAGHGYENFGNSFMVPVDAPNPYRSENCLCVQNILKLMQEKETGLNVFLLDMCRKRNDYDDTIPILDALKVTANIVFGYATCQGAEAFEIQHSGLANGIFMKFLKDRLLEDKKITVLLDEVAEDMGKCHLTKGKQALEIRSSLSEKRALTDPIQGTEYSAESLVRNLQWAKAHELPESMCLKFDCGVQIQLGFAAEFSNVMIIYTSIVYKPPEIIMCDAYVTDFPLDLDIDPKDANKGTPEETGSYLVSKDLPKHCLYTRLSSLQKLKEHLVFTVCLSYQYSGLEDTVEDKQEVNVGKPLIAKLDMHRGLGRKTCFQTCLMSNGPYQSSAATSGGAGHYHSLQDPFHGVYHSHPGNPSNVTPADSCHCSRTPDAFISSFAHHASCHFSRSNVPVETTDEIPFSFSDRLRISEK
The experiment in a line: MALT1 biochemical assay (fluorescence based, Ac-Leu-Arg-Ser-Arg-AMC cleavage). The note with it: full length MALT1 protein, 2 h pre-incubation at RT, tetrapeptide substrate Ac-Leu-Arg-Ser-Arg-AMC, read-out: Malt 1 inhibition IC50. A digest of the protocol:
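Full-length MALT1 (100-300 ng/well) was pre-incubated with compound for 2 h at RT, then 100 μM Ac-LRSR-AMC was added for 4-12 h. Buffer was 50 mM MES, 150 mM NaCl, 0.1% CHAPS, 1 M ammonium citrate, 10 mM DTT, pH 7, with 0.5% DMSO. IC50 was derived from AMC fluorescence (ex 360/em 460 nm).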

For test [1], the system named is NF-kB transcriptional activity in HEK-293-NF-kB-Luc cell line overexpressing MALT1. Briefly: NF-kB reporter assay (luciferase, MALT1 stably overexpressed). The test is classed as cell-based. Particulars: Homo sapiens, 24 h, HEK-293-NF-kB-Luc cells stably overexpressing MALT1, 24 h treatment, Bright Glo luminescence; read-out: NF-kB inhibition IC50. A digest of the protocol: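 HEK-293-NF-κB-Luc cells stably overexpressing MALT1 were seeded overnight, then exposed to test compounds for 24 h. Bright Glo added 10 min at ambient temperature and luminescence read; % inhibition calculated against 0.1% DMSO controls.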

In the next test the test system is OCI-Ly-10 cells. Briefly: Anticancer assay (14 days), cell viability by CCK-8. The class given is cell-based. Particulars: Homo sapiens, OCI-Ly10, 336 h, 14 days treatment, fresh treatment every 5th day, CCK-8 viability, read-out: Ly-10 (14d) inhibition IC50. As for the experimental part:
OCI-Ly-10 cells (UHN, Canada) seeded in culture media (IMDM+20% FBS) in 96-well plates were treated with various concentrations of the test compounds. Cells were treated for a period of 14 days (13-15 days depending on the confluency of cells) with fresh treatments every 5th day. After the first treatment, for all subsequent treatments, the cells were centrifuged, the spent media was removed and fresh media containing the test compound was added. Cell viability was assessed using CCK-8 kit (Dojindo Laboratories, China) as per manufacturer's instructions. Plates were read in colorimeter and absorbance was detected. (Detection at 450 nm; Background correction at 650 nm). % inhibition was calculated relative to the samples containing media with 0.1% DMSO alone as per the following formula

Each structure is given as a SMILES string.

Regarding `Cc1nc2c(N3CCOCC3)c(NC(=O)Nc3cnc(-n4nccn4)c(Cl)c3)cnc2s1` [Compound 28, 1-(5-Chloro-6-(2H-1,2,3-triazol-2-yl)pyridin-3-yl)-3-(2-methyl-7-morpholinothiazolo[5,4-b]pyridin-6-yl)urea], the IC50 on full length MALT1 enzyme was in the range of 1 to 50 nM; in test [1] it was 101 to 500 nM; with OCI-Ly-10 cells, 501 to 1500 nM.
On to `CCOC(C)c1c(NC(=O)Nc2cnc(-n3nccn3)c(C(F)(F)F)c2)cnc2sc(C)nc12` (single isomer, unassigned) [Compound 165b, 1-(6-(2H-1,2,3-Triazol-2-yl)-5-(trifluoromethyl)pyridin-3-yl)-3-(7-(1-ethoxyethyl)-2-methylthiazolo[5,4-b]pyridin-6-yl)urea], for which the IC50 at full length MALT1 enzyme was 1 to 50 nM; in test [1] it was 1 to 100 nM; with OCI-Ly-10 cells it was 26 to 100 nM.
With `CCC(OC)c1c(NC(=O)Nc2ccc(-n3nccn3)c(C(F)(F)F)c2)cnc2sc(C)nc12` (single isomer, unassigned) [Compound 147b, 1-(4-(2H-1,2,3-Triazol-2-yl)-3-(trifluoromethyl)phenyl)-3-(7-(1-methoxypropyl)-2-methylthiazolo[5,4-b]pyridin-6-yl)urea], the 50% inhibitory concentration (IC50) lay within 1 to 50 nM at full length MALT1 enzyme, 1 to 100 nM in test [1] and 0.1 to 25 nM in the test on OCI-Ly-10 cells.
For `COC(c1c(NC(=O)Nc2cnc(-n3nccn3)c(Cl)c2)cnc2sc(C)nc12)C(C)C` (single isomer, unassigned) [Compound 79b, 1-(5-Chloro-6-(2H-1,2,3-triazol-2-yl)pyridin-3-yl)-3-(7-(1-methoxy-2-methylpropyl)-2-methylthiazolo[5,4-b]pyridin-6-yl)urea] the same measures were 1 to 50 nM, 1 to 100 nM and 26 to 100 nM.
For `Cc1nc2c(C(C3CC3)N(C)C)c(NC(=O)Nc3cnc(-n4nccn4)c(C(F)(F)F)c3)cnc2s1` (single isomer, unassigned) [Compound 76b, 1-(6-(2H-1,2,3-Triazol-2-yl)-5-(trifluoromethyl)pyridin-3-yl)-3-(7-(cyclopropyl(dimethylamino)methyl)-2-methylthiazolo[5,4-b]pyridin-6-yl)urea] the same measures were 1 to 50 nM, 1 to 100 nM and 0.1 to 25 nM.
Turning to `COC(c1c(NC(=O)Nc2ccc(-n3nccn3)c(C(F)(F)F)c2)cnc2sc(C)nc12)C1CC1` (single isomer, unassigned) [Compound 153b, 1-(4-(2H-1,2,3-Triazol-2-yl)-3-(trifluoromethyl)phenyl)-3-(7-(cyclopropyl(methoxy)methyl)-2-methylthiazolo[5,4-b]pyridin-6-yl)urea], the IC50 at full length MALT1 enzyme lay in the range of 1 to 50 nM; in test [1], 1 to 100 nM; in the test with OCI-Ly-10 cells, 26 to 100 nM.
On to `COc1ncc(Cl)cc1NC(=O)Nc1cnc2sc(C)nc2c1C1CC1` [Compound 192, 1-(5-Chloro-2-methoxypyridin-3-yl)-3-(7-cyclopropyl-2-methylthiazolo[5,4-b]pyridin-6-yl)urea], for which the IC50 is 51 to 100 nM on full length MALT1 enzyme, 101 to 500 nM in test [1] and 501 to 1500 nM in the test with OCI-Ly-10 cells.
For `Cc1nc2c(C3CC3)c(NC(=O)Nc3ccc(-n4nccn4)c(Cl)c3)cnc2s1` [Compound 168, 1-(3-Chloro-4-(2H-1,2,3-triazol-2-yl)phenyl)-3-(7-cyclopropyl-2-methylthiazolo[5,4-b]pyridin-6-yl)urea] the same measures were 1 to 50 nM, 501 to 1500 nM and 251 to 500 nM.
With `COc1ncc(NC(=O)Nc2cnc3sc(C)nc3c2C2CC2)cc1Cl` [Compound 1, 1-(5-Chloro-6-methoxypyridin-3-yl)-3-(7-cyclopropyl-2-methylthiazolo [5,4-b]pyridin-6-yl)urea], the IC50 lay in the range of 1 to 50 nM at full length MALT1 enzyme, 1 to 100 nM in test [1] and 101 to 250 nM in the test on OCI-Ly-10 cells.
For `COC(C)(c1c(NC(=O)Nc2ccc(-n3nccn3)c(C(F)(F)F)c2)cnc2sc(C)nc12)C1CC1` (single isomer, unassigned) [Compound 94b, 1-(4-(2H-1,2,3-triazol-2-yl)-3-(trifluoromethyl)phenyl)-3-(7-(1-cyclopropyl-1-methoxyethyl)-2-methylthiazolo[5,4-b]pyridin-6-yl)urea], the IC50 is 1 to 50 nM on full length MALT1 enzyme, 1 to 100 nM in test [1] and 26 to 100 nM in the test with OCI-Ly-10 cells.
Regarding `CCOC(C)c1c(NC(=O)Nc2cnc(OC)c(Cl)c2)cnc2sc(C)nc12` (racemic) [Compound 162, 1-(5-Chloro-6-methoxypyridin-3-yl)-3-(7-(1-ethoxyethyl)-2-methylthiazolo[5,4-b]pyridin-6-yl)urea], the values for the IC50 (on full length MALT1 enzyme; in test [1]; in the test on OCI-Ly-10 cells) were 1 to 50 nM, 1 to 100 nM and 501 to 1500 nM, respectively.
For the compound `CCC(c1c(NC(=O)Nc2cnc(-n3nccn3)c(C(F)(F)F)c2)cnc2sc(C)nc12)N(C)C` (single isomer, unassigned) [Compound 75b, 1-(6-(2H-1,2,3-Triazol-2-yl)-5-(trifluoromethyl)pyridin-3-yl)-3-(7-(1-(dimethylamino)propyl)-2-methylthiazolo[5,4-b]pyridin-6-yl)urea], the values for the IC50 (at full length MALT1 enzyme; in test [1]; in the test with OCI-Ly-10 cells) were 51 to 100 nM, 1 to 100 nM and 26 to 100 nM, respectively.
In the case of `COc1ccc(NC(=O)Nc2cnc3sc(C)nc3c2C2CC2)cc1Cl` [Compound 2, 1-(3-Chloro-4-methoxyphenyl)-3-(7-cyclopropyl-2-methylthiazolo[5,4-b]pyridin-6-yl)urea], the figures for the IC50 (on full length MALT1 enzyme; in test [1]; with OCI-Ly-10 cells) were 1 to 50 nM, 501 to 1500 nM and 251 to 500 nM, respectively.
With `CCC(OC)c1c(NC(=O)Nc2cnc(-n3nccn3)c(Cl)c2)cnc2sc(C)nc12` (single isomer, unassigned) [Compound 145b, 1-(5-Chloro-6-(2H-1,2,3-triazol-2-yl)pyridin-3-yl)-3-(7-(1-methoxypropyl)-2-methylthiazolo[5,4-b]pyridin-6-yl)urea], the IC50 fell in the range of 1 to 50 nM on full length MALT1 enzyme, 1 to 100 nM in test [1] and 0.1 to 25 nM with OCI-Ly-10 cells.
Regarding `COC(c1c(NC(=O)Nc2cnc(-n3nccn3)c(C(F)(F)F)c2)cnc2sc(C)nc12)C(C)(C)C` (single isomer, unassigned) [Compound 57b, 1-(6-(2H-1,2,3-Triazol-2-yl)-5-(trifluoromethyl)pyridin-3-yl)-3-(7-(1-methoxy-2,2-dimethylpropyl)-2-methylthiazolo[5,4-b]pyridin-6-yl)urea], the IC50 at full length MALT1 enzyme lay in the range of 1 to 50 nM; in test [1] it was 1 to 100 nM; with OCI-Ly-10 cells it was 26 to 100 nM.
With `COC(C)c1c(NC(=O)Nc2cc(-n3nccn3)cc(C(F)(F)F)c2)cnc2sc(C)nc12` (single isomer, unassigned) [Compound 217b, (S) or (R)-1-(3-(2H-1,2,3-triazol-2-yl)-5-(trifluoromethyl)phenyl)-3-(7-(1-methoxyethyl)-2-methylthiazolo[5,4-b]pyridin-6-yl)urea], the figures for the IC50 (on full length MALT1 enzyme; in test [1]; in the test on OCI-Ly-10 cells) were 51 to 100 nM, 1 to 100 nM and 251 to 500 nM, respectively.
As for `CCc1c(NC(=O)Nc2cnc(OC)c(Cl)c2)cnc2sc(C)nc12` [Compound 26, 1-(5-Chloro-6-methoxypyridin-3-yl)-3-(7-ethyl-2-methylthiazolo[5,4-b]pyridin-6-yl)urea], the IC50 was in the range of 1 to 50 nM on full length MALT1 enzyme, 101 to 500 nM in test [1] and 101 to 250 nM in the test on OCI-Ly-10 cells.
